Experimental data taken from ChEMBL document CHEMBL1146741, “Cycloalkyl[b][1,4]benzodiazepinoindoles are agonists at the human 5-HT2C receptor” (Bioorg Med Chem Lett, 2004).
Values belong to the molecule of their own block, whether it stands above or below them.

What was measured:
[1] = target: T1, 5-hydroxytryptamine receptor 2C (Homo sapiens, UniProt P28335); experiment: Agonistic binding affinity against human 5-hydroxytryptamine 2C receptor in CHO cells using [125I]- DOI; assay type: cell-based
T1 sequence (P28335 whole entry): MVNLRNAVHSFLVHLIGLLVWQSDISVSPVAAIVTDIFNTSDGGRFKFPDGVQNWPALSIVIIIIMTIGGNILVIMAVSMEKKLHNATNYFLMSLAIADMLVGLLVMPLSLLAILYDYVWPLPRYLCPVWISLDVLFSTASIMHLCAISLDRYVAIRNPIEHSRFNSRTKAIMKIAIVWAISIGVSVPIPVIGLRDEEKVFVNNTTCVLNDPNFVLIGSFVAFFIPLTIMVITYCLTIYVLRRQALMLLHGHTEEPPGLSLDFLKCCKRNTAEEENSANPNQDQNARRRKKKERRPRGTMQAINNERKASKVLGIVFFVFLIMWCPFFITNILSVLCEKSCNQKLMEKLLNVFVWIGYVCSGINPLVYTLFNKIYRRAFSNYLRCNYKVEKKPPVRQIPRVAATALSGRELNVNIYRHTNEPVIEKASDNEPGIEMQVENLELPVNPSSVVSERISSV

[2] = target: T2, 5-hydroxytryptamine receptor 2A (Homo sapiens, UniProt P28223); experiment: Agonistic binding affinity against human 5-hydroxytryptamine 2A receptor in CHO cells using [125I]-DOI
[3] = target: T3, 5-hydroxytryptamine receptor 1A (Homo sapiens) (UniProt P08908); experiment: Percent binding affinity against 5-hydroxytryptamine 1A receptor; conditions: concentration not given here
T3 sequence (whole entry): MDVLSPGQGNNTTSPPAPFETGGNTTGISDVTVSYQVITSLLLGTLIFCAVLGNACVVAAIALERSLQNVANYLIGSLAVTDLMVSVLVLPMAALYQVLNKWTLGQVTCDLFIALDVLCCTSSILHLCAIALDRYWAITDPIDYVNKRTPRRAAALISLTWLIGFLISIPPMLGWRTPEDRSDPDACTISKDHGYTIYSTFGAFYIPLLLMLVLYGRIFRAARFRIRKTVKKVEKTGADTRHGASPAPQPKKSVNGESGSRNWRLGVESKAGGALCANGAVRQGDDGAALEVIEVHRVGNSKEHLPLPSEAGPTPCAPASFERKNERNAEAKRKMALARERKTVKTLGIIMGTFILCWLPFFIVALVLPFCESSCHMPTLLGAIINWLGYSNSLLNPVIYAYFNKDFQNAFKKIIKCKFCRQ

[4] = target: T4, 5-hydroxytryptamine receptor 2C (Homo sapiens) (UniProt P28335); experiment: Agonistic binding efficacy against human 5-hydroxytryptamine 2C receptor in CHO cells using [125I]- DOI radioligand; assay type: cell-based
T4 sequence (whole entry): T1 sequence (P28335 whole entry)

[5] = target: T4, 5-hydroxytryptamine receptor 2C (Homo sapiens); experiment: Agonistic binding affinity against human 5-hydroxytryptamine 2C receptor in CHO cells using [125I]- DOI radioligand, expressed as Emax; assay type: cell-based
[6] = target: D(3) dopamine receptor (Homo sapiens) (UniProt P35462); experiment: Percent binding affinity against dopamine D3 receptor; conditions: concentration not given here
[7] = target: D(4) dopamine receptor (Homo sapiens) (UniProt P21917); experiment: Percent binding affinity against dopamine receptor D4; conditions: concentration not given here
[8] = target: T2, 5-hydroxytryptamine receptor 2A; experiment: Effective concentration against human 5-hydroxytryptamine 2A receptor in CHO cells by stimulation of [3H]inositol monophosphate production
[9] = target: T2, 5-hydroxytryptamine receptor 2A; experiment: Agonistic binding affinity against human 5-hydroxytryptamine 2A receptor in CHO cells using [125I]DOI radioligand

T2 sequence (P28223 whole entry): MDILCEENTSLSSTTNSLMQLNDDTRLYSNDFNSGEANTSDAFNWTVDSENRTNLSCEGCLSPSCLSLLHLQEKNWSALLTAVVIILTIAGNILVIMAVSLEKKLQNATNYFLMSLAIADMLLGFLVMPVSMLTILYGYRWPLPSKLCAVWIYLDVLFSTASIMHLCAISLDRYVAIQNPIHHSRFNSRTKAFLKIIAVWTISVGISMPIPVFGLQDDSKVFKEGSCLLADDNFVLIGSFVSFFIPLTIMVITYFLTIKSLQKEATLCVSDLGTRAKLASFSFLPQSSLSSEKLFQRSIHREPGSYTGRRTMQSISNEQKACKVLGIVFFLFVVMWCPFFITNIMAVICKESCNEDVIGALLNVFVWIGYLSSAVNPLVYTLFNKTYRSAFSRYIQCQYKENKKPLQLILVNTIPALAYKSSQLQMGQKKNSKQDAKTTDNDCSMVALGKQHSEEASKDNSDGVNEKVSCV
Sequence of D(3) dopamine receptor (Homo sapiens) (P35462 whole entry, looked up): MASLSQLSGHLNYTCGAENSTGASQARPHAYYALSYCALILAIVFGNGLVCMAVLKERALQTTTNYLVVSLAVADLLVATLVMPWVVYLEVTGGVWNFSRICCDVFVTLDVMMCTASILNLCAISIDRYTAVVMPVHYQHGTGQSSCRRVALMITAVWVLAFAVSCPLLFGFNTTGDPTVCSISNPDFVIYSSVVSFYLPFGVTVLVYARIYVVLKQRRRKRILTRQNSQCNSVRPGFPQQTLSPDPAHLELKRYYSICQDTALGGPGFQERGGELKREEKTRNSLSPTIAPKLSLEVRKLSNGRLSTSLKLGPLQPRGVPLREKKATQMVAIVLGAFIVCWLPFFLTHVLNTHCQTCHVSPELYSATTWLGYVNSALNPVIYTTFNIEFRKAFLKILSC
Sequence of D(4) dopamine receptor (Homo sapiens) (P21917 whole entry, looked up): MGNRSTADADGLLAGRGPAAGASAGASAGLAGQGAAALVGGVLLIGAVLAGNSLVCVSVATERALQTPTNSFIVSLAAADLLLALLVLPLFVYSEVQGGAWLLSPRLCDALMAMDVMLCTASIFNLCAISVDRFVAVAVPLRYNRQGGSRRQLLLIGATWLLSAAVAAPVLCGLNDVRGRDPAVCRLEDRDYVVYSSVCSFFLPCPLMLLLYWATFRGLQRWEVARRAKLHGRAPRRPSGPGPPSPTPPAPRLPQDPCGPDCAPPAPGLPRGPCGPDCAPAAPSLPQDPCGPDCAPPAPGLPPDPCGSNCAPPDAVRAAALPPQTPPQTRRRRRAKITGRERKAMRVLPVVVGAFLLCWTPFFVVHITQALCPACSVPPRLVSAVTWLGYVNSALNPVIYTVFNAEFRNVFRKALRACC

Compound: CC1(C)Cc2c(c3cccc4c3n2CCNC4)C(C)(C)C1
Ki [1]: 79 nM
Ki [2]: 152 nM

Compound: c1cc2c3c(c1)c1c(n3CCNC2)CCCCCC1
inhibition [3]: 4%
Efficacy [4]: 102%
Emax [5]: 102%
inhibition [6]: 37%
inhibition [7]: 47%
Ki [2]: 36 nM
EC50 [8]: 64000 nM

Compound: c1cc2c3c(c1)c1c(n3CCNC2)CCCCC1
Efficacy [4]: 73%
Ki [2]: 199 nM

Next, values leading:

Ki [2]: 1560 nM
Compound: C[C@@H]1Cn2c3c(c4cccc(c42)CN1)CCCC3

Ki [1]: 111 nM
Compound: Fc1ccc2c3c1c1c(n3CCNC2)CCCC1

Ki [2]: 2530 nM
Compound: Cc1cc2c3c(c1)c1c(n3CCNC2)CCC1

Ki [2]: 1230 nM
Compound: Cc1cc2c3c(c1)c1c(n3CCNC2)CCCC1

Emax [5]: 90%
Ki [9]: 922 nM
Compound: c1cc2c3c(c1)c1c(n3CCNC2)CCC1
